Reference: patent US11999759B2, “Boronic acid derivatives and therapeutic uses thereof” (Qpex Biopharma, Inc., priority 2016, dated 2024)

How the values were obtained:
[1] = Stability of compound 13 prodrugs in human serum; type: in vitro ADME; settings: 37° C., prodrug 50.0 μg/mL
Experimental: The rate of hydrolysis for several prodrugs of 13 was evaluated in vitro by measuring their stability in human serum and human liver microsomes. All serum stability experiments were conducted by aliquoting 10 μL of test compound at 500 μg/mL (10× final concentration) in 95:5 water:acetonitrile v/v into 1.5 mL Eppendorf tubes. […] The tubes were then warmed to 37° C. in a water bath along with human serum (Bioreclamations) in a separate tube. Serum esterase activity for each lot of serum used was established by assaying an unrelated ester prodrug as a control. To initiate the reaction, 90 μL of serum was added to tubes for all timepoints using a repeating-tip pipette, thereby bringing the final concentration of test compound to 50 μg/mL and the final concentration of acetonitrile to 0.5% v/v. At each timepoint, the reaction was halted and serum proteins precipitated through the addition of an equal volume of cold acetonitrile containing 25 μg/mL diclofenac as an internal standard. […] Sample analysis for serum stability experiments was conducted using an Agilent 1100 binary pump HPLC equipped with a diode array detector set to monitor absorbance at 286 nm (8 nm bandwidth). […] The samples were analyzed together with appropriate blanks in order to ensure specificity. […] The rate of activation was determined by monitoring the concentration of test compound as follows. The peak area for the analyte was divided by the peak area for the internal standard to give an area ratio. The area ratio for each timepoint was divided by the area ratio for timepoint 0 to give the percent remaining at each timepoint. The natural logarithm of the percent remaining versus time was plotted using Microsoft Excel and fitted to a linear trendline.

NDM-1 = NDM-1 (Klebsiella pneumoniae, UniProt C7C422); test: Inhibition of imipenem cleavage by purified NDM-1; type: biochemical; settings: imipenem reporter substrate; 37° C.; read-out: Ki (NDM-1, IMI)
Experimental: Purified enzymes were mixed with various concentrations of inhibitors in reaction buffer and incubated for 10 min at room temperature. Imipenem was added and substrate cleavage profiles were recorded at 294 nm every 30 seconds for 30 minutes at 37° C.

OXA-48 = OXA-48 (Klebsiella pneumoniae, UniProt Q6XEC0); test: Inhibition of nitrocefin cleavage by purified OXA-48; type: biochemical; settings: nitrocefin reporter substrate; 10 min preincubation at room temperature; read-out: Ki (OXA-48, NCF)
Experimental: (§1) Ki values of inhibition of purified class A, C and D enzymes were determined spectrophotometrically using nitrocefin as reporter substrate. Purified enzymes were mixed with various concentrations of inhibitors in reaction buffer and incubated for 10 min at room temperature. Nitrocefin was added and substrate cleavage profiles were recorded at 490 nm every 10 sec for 10 min. These experiments confirmed that the described compounds are inhibitors with a broad-spectrum of activity towards various β-lactamases.

SHV-12 = SHV-12 (Klebsiella pneumoniae, UniProt P0AD64, E235K/G234S/L31Q); test: Inhibition of nitrocefin cleavage by purified SHV-12; type: biochemical; settings: nitrocefin reporter substrate; 10 min preincubation at room temperature; read-out: Ki (SHV-12, NCF)
Experimental: as §1, with “min.” for “min. These experiments confirmed that the described compounds are inhibitors with a broad-spectrum of activity towards various β-lactamases.”

Pa-AmpC = Pa-AmpC (Pseudomonas aeruginosa, UniProt P24735); test: biochemical; settings: nitrocefin reporter substrate; 10 min preincubation at room temperature; read-out: Ki (Pa-AmpC, NCF)
Experimental: as §1, with “min.” for “min. These experiments confirmed that the described compounds are inhibitors with a broad-spectrum of activity towards various β-lactamases.”

P99 = P99 (Enterobacter cloacae, UniProt P05364); test: biochemical; settings: nitrocefin reporter substrate; 10 min preincubation at room temperature; read-out: Ki (P99, NCF)
Experimental: as §1, with “min.” for “min. These experiments confirmed that the described compounds are inhibitors with a broad-spectrum of activity towards various β-lactamases.”

VIM-1 = VIM-1 (Pseudomonas aeruginosa, UniProt A0A0F7KYQ8); test: Inhibition of nitrocefin cleavage by purified VIM-1; type: biochemical; settings: nitrocefin reporter substrate; 10 min preincubation at room temperature; read-out: Ki (VIM-1, NCF)
IMP-1 = IMP-1 (Serratia marcescens, UniProt P52699); test: Inhibition of imipenem cleavage by purified IMP-1; type: biochemical; settings: imipenem reporter substrate; 37° C.; read-out: Ki (IMP-1, IMI)
Experimental: Ki values of inhibition of purified class B enzymes NDM-1 and IMP-1 were determined spectrophotometrically using imipenem as reporter substrate. Purified enzymes were mixed with various concentrations of inhibitors in reaction buffer and incubated for 10 min at room temperature. Imipenem was added and substrate cleavage profiles were recorded at 294 nm every 30 seconds for 30 minutes at 37° C. These experiments further confirmed that the described compounds have the ability to inhibit carbapenemase activity of metallo-beta-lactamases.

OXA-23 = OXA-23 (Acinetobacter baumannii, UniProt Q9L4P2); test: Inhibition of nitrocefin cleavage by purified OXA-23; type: biochemical; settings: nitrocefin reporter substrate; 10 min preincubation at room temperature; read-out: Ki (OXA-23, NCF)
Experimental: as §1

CTX-M-14 = CTX-M-14 (Escherichia coli, UniProt Q9L5C7); test: Inhibition of nitrocefin cleavage by purified CTX-M-14; type: biochemical; settings: nitrocefin reporter substrate; 10 min preincubation at room temperature; read-out: Ki (CTX-M-14, NCF)
Experimental: as §1, with “min.” for “min. These experiments confirmed that the described compounds are inhibitors with a broad-spectrum of activity towards various β-lactamases.”

KPC-2 = KPC-2 (Klebsiella pneumoniae, UniProt Q9F663); test: Inhibition of nitrocefin cleavage by purified KPC-2; type: biochemical; settings: nitrocefin reporter substrate; 10 min preincubation at room temperature; read-out: Ki (KPC-2, NCF)
Experimental: as §1

[2] = Stability of compound 13 prodrugs in human liver microsomes (HLM); type: in vitro ADME; settings: 0.500 mg/mL human liver microsomes, no cofactors, prodrug 1.00 μM; for half-life at 1 μM: pH 7.4, read-out: Estimated half-life (minutes) (rounded to nearest integer value)
Experimental: In the meantime, a 20.0 mg/mL solution of human liver microsomes (XenoTech, LLC) was diluted to 1.00 mg/mL (2× final concentration). Esterase activity for each lot of microsomes used was established by assaying an unrelated ester prodrug as a control. Both the Eppendorfs for each timepoint and the diluted liver microsomes were then warmed to 37° C. in a water bath. No cofactors (e.g. NADPH) were added to ensure that only hydrolytic reactions as opposed to reactions mediated by other cofactor-dependent enzymes (e.g. CYP450 enzymes) would take place. To initiate the reaction, 50 μL of diluted human liver microsomes was added to tubes for all timepoints using a repeating-tip pipette, thereby bringing the final concentration of test compound to 1.00 μM and the final concentration of human liver microsomes to 0.500 mg/mL. At each timepoint, the reaction was halted and proteins precipitated through the addition of 200 μL of 10:45:45 water:methanol:acetonitrile v/v/v containing an unrelated ester prodrug at 250 ng/mL as an internal standard. […] Sample analysis for microsome stability experiments was conducted using a 20.0 μL injection on a LEAP PAL autosampler with Agilent 1100 binary pump HPLC coupled to an AB Sciex 3200 QTrap mass spectrometer. […] Detection was in positive mode; source parameters and parent-daughter ion selection criteria were chosen as needed for each compound to achieve an appropriate limit of detection and signal-to-noise ratio. The samples were analyzed together with appropriate blanks in order to ensure specificity. The rate of hydrolysis for each prodrug was determined by monitoring the concentration of test compound as follows. The peak area for the analyte was divided by the peak area for the internal standard to give an area ratio. The area ratio for each of the two replicates at each timepoint was divided by the area ratio for timepoint 0 to give the percent remaining at each timepoint. The natural logarithm of the percent remaining versus time for all replicates was plotted using Microsoft Excel and fitted to a linear trendline.

Pa-AmpC, sequence (P24735 27-397): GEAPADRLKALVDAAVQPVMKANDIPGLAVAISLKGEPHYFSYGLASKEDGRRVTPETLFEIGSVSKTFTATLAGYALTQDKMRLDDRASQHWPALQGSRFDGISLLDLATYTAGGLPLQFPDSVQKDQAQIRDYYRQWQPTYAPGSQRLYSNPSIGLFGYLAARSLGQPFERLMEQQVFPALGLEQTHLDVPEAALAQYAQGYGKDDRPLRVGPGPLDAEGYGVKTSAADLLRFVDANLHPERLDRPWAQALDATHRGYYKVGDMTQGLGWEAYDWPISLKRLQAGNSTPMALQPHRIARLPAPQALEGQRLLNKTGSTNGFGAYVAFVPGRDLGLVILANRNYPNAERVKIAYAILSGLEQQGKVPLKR
CTX-M-14, sequence (Q9L5C7 29-291, species assumed): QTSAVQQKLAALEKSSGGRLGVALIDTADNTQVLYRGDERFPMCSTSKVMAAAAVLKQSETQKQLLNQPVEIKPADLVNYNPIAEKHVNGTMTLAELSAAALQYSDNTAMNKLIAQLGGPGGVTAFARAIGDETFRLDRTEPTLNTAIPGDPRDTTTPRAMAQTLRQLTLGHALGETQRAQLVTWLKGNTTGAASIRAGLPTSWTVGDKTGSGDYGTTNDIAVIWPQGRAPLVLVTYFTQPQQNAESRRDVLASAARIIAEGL
P99, sequence (P05364 21-381): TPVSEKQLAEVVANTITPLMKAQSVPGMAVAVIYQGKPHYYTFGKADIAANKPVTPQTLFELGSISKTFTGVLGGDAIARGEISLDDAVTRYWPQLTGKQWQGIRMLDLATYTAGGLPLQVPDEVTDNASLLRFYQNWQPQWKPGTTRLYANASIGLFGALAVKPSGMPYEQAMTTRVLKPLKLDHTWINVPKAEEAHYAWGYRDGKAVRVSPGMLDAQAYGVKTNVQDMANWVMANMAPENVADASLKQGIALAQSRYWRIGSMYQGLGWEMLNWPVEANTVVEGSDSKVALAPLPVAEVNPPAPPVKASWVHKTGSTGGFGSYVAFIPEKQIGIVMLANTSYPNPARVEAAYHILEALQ
KPC-2, sequence (Q9F663 25-293 limits assumed): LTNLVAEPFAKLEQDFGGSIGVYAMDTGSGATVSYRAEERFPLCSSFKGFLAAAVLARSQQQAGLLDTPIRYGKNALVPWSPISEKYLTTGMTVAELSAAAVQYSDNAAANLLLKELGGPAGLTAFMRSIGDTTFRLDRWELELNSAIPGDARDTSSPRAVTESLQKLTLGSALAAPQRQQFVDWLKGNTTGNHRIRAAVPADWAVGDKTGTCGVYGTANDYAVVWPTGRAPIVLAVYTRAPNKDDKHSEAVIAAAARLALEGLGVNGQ
OXA-23, sequence (Q9L4P2 18-273): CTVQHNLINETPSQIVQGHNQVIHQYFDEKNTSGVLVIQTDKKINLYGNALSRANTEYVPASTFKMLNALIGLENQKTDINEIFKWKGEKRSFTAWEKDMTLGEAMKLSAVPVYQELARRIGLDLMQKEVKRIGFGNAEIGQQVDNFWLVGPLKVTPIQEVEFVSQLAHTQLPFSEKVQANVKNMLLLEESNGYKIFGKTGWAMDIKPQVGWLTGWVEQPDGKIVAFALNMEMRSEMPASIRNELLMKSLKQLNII
IMP-1, sequence (P52699 19-246, looked up, species assumed): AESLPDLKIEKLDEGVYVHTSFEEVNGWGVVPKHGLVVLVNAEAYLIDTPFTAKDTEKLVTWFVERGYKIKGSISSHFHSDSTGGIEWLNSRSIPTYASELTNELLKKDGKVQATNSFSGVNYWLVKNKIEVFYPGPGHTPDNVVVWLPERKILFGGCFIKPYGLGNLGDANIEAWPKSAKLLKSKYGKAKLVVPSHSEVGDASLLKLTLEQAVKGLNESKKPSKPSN
OXA-48, sequence (Q6XEC0 23-265, looked up): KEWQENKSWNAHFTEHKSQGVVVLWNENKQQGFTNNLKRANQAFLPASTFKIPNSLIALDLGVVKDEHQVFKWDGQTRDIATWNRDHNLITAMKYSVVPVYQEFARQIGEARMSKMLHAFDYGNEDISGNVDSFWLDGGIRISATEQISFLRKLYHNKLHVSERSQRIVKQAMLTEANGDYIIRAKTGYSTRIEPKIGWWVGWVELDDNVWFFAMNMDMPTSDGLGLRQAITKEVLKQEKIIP
SHV-12, sequence (P0AD64 22-286 L31Q/G234S/E235K): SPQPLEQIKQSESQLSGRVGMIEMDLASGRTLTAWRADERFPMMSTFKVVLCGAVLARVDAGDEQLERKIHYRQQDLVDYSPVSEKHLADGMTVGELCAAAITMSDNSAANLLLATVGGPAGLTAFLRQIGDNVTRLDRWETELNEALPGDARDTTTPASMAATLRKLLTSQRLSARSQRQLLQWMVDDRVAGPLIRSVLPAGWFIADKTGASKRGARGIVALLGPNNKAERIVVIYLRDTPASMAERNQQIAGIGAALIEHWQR
NDM-1, sequence (C7C422 29-270, looked up, species assumed): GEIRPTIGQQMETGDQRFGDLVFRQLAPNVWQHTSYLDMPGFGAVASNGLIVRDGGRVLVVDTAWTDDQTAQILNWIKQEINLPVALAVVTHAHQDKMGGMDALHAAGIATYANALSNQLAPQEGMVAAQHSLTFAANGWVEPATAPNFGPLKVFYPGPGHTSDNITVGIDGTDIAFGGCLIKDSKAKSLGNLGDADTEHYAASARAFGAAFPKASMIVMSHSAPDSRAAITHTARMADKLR

% of initial area ratio at t = 0 min [1] | % of initial area ratio at t = 5 min [1] | % of initial area ratio at t = 10 min [1] | % of initial area ratio at t = 30 min [1] | SMILES | Ki (NDM-1) | Ki (OXA-48) | Ki (SHV-12) | Ki (Pa-AmpC) | Ki (P99) | Ki (VIM-1) | Ki (IMP-1) | Ki (OXA-23) | Ki (CTX-M-14) | Ki (KPC-2) | Average % of initial area ratio at t = 0 min [2] | Average % of initial area ratio at t = 5 min [2] | Average % of initial area ratio at t = 10 min [2] | Average % of initial area ratio at t = 30 min [2] | half-life at 1 μM [2]
100% | 48.4% | 15.4% | 0% | Cc1oc(=O)oc1COC(=O)c1c(F)ccc2c1OB(O)[C@@H]1C[C@H]21 [Compound 33, (5-Methyl-2-oxo-1,3-dioxol-4-yl)methyl (1aR,7bS)-5-fluoro-2-hydroxy-1a,7b-dihydro-1H-cyclopropa[c][1,2]benzoxaborinine-4-carboxylate] | – | – | – | – | – | – | – | – | – | – | – | – | – | – | –
– | – | – | – | COc1ccc2c(c1C(=O)O)OB(O)CC21CC1 [Compound 11, 2-hydroxy-7-methoxy-spiro[3H-1,2-benzoxaborinine-4,1′-cyclopropane]-8-carboxylic acid] | < 100 nM | < 100 nM | < 100 nM | < 100 nM | < 100 nM | 100 to 1000 nM | 100 to 1000 nM | < 100 nM | < 100 nM | < 100 nM | – | – | – | – | –
100% | 69.3% | 59.4% | 41.1% | O=C(OCOC(=O)C1CCOCC1)c1c(F)ccc2c1OB(O)[C@@H]1C[C@H]21 [Compound 39, Tetrahydropyran-4-carbonyloxymethyl (1aR,7bS)-5-fluoro-2-hydroxy-1a,7b-dihydro-1H-cyclopropa[c][1,2]benzoxaborinine-4-carboxylate] | – | – | – | – | – | – | – | – | – | – | – | – | – | – | –
100% | 86.8% | 77.2% | 38.7% | O=C(OCOC(=O)c1c(F)ccc2c1OB(O)[C@@H]1C[C@H]21)OC1COC1 [Compound 32, Oxetan-3-yloxycarbonyloxymethyl (1aR,7bS)-5-fluoro-2-hydroxy-1a,7b-dihydro-1H-cyclopropa[c][1,2]benzoxaborinine-4-carboxylate] | – | – | – | – | – | – | – | – | – | – | – | – | – | – | –
– | – | – | – | COc1ccc2c(c1C(=O)O)OB(O)C1C2[C@H]2C=C[C@@H]1C2 (stereo partly drawn) [Compound 6, (7R,10R)-6-hydroxy-3-methoxy-6a,7,10,10a-tetrahydro-6H-7,10-methanodibenzo[c,e][1,2]oxaborinine-4-carboxylic acid] | > 1000 nM | < 100 nM | 100 to 1000 nM | < 100 nM | < 100 nM | 100 to 1000 nM | > 1000 nM | 100 to 1000 nM | > 1000 nM | < 100 nM | – | – | – | – | –
100% | 58.6% | 34.5% | 2.9% | COCC(=O)OCOC(=O)c1c(F)ccc2c1OB(O)[C@@H]1C[C@H]21 [Compound 43, (2-Methoxyacetyl)oxymethyl (1aR,7bS)-5-fluoro-2-hydroxy-1a,7b-dihydro-1H-cyclopropa[c][1,2]benzoxaborinine-4-carboxylate] | – | – | – | – | – | – | – | – | – | – | 100% | 64.4% | 44.6% | 0.6% | 4 min
– | – | – | – | O=C(O)c1cccc2c1OB(O)C1CC21 (stereo not shown) [Compound 10, 2-Hydroxy-1a,7b-dihydro-1H-cyclopropa[c][1,2]benzoxaborinine-4-carboxylic acid] | < 100 nM | < 100 nM | < 100 nM | < 100 nM | < 100 nM | < 100 nM | 100 to 1000 nM | < 100 nM | < 100 nM | < 100 nM | – | – | – | – | –
– | – | – | – | COc1ccc2c(c1C(=O)O)OB(O)C1C2[C@H]2CC[C@@H]1C2 (stereo partly drawn) [Compound 7, (7R,10S)-6-hydroxy-3-methoxy-6a,7,8,9,10,10a-hexahydro-6H-7,10-methanodibenzo[c,e][1,2]oxaborinine-4-carboxylic acid] | < 100 nM | < 100 nM | 100 to 1000 nM | < 100 nM | < 100 nM | < 100 nM | < 100 nM | < 100 nM | < 100 nM | < 100 nM | – | – | – | – | –

SMILES | % of initial area ratio at t = 0 min [1] | % of initial area ratio at t = 5 min [1] | % of initial area ratio at t = 10 min [1] | % of initial area ratio at t = 30 min [1] | Ki (NDM-1) | Ki (OXA-48) | Ki (SHV-12) | Ki (Pa-AmpC) | Ki (P99) | Ki (VIM-1) | Ki (IMP-1) | Ki (OXA-23) | Ki (CTX-M-14) | Ki (KPC-2) | Average % of initial area ratio at t = 0 min [2] | Average % of initial area ratio at t = 5 min [2] | Average % of initial area ratio at t = 10 min [2] | Average % of initial area ratio at t = 30 min [2] | half-life at 1 μM [2]
CC(=O)OCC(=O)OCOC(=O)c1c(F)ccc2c1OB(O)[C@@H]1C[C@H]21 [Compound 42, (2-Acetoxyacetyl)oxymethyl (1aR,7bS)-5-fluoro-2-hydroxy-1a,7b-dihydro-1H-cyclopropa[c][1,2]benzoxaborinine-4-carboxylate] | 100% | 29.1% | 8.1% | 0% | – | – | – | – | – | – | – | – | – | – | 100% | 27.1% | 10.3% | 0.4% | 4 min
